Source: PubChem BioAssay (NCI)
Several values for one entry are separate records, joined by “and”; a condition that tells them apart may be missing. Equal entries are not always repeated.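 Tested at 5 concentrations; 48 h exposure; 96-well plates; endpoints linearly interpolated, else capped at highest concentration. At the GI50, growth is halved. The concentration for full growth arrest is given as TGI.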

What was measured:
Assay in all cases: DTP human tumour cell line panel, 48 h
RPMI-8226 leukemia = test system: RPMI-8226 leukemia
UACC-62 melanoma = test system: UACC-62 melanoma
NCI-H23 lung = test system: NCI-H23 lung
M14 melanoma = test system: M14 melanoma
SK-OV-3 ovarian = test system: SK-OV-3 ovarian
HCC-2998 colon = test system: HCC-2998 colon
HS 578T breast = test system: HS 578T breast
NCI/ADR-RES ovarian = test system: NCI/ADR-RES ovarian
PC-3 prostate = test system: PC-3 prostate
MDA-MB-435 = test system: MDA-MB-435

## CCOC(=O)C(=O)Nc1ccccc1C(C)C
RPMI-8226 leukemia
  TGI: > 100 µM
UACC-62 melanoma
  TGI: > 100 µM
NCI-H23 lung
  TGI: > 100 µM
M14 melanoma
  TGI: > 100 µM
SK-OV-3 ovarian
  TGI: > 100 µM
HCC-2998 colon
  TGI: > 100 µM

## O=C1NC(c2cccc(OCc3ccccc3)c2)Nc2ccccc21 (stereo unspecified)
HS 578T breast
  TGI: 9.83 µM
RPMI-8226 leukemia
  TGI: 1.07 µM
UACC-62 melanoma
  TGI: > 27.1 µM
NCI-H23 lung
  TGI: > 100 µM
NCI/ADR-RES ovarian
  TGI: 0.468 µM
M14 melanoma
  TGI: 38.8 µM
SK-OV-3 ovarian
  TGI: 5.87 µM
HCC-2998 colon
  TGI: 0.621 µM

## CCOC(=O)C(C(O)c1ccc([N+](=O)[O-])cc1)P(=O)(OCC)OCC (stereo unspecified)
RPMI-8226 leukemia
  TGI: > 100 µM
UACC-62 melanoma
  TGI: > 100 µM
NCI-H23 lung
  TGI: > 100 µM
M14 melanoma
  TGI: > 100 µM
HCC-2998 colon
  TGI: > 100 µM

## O=c1cc(-c2ccccc2)[nH]c2cc(Cl)ccc12
RPMI-8226 leukemia
  TGI: 10.5 µM
UACC-62 melanoma
  TGI: 11.9 µM
NCI-H23 lung
  TGI: 4.35 µM
M14 melanoma
  TGI: > 100 µM
SK-OV-3 ovarian
  TGI: 3.95 µM
HCC-2998 colon
  TGI: 4.76 µM

## c1ccc(N/N=C2\NN=C(c3ccccc3)CS2)cc1
UACC-62 melanoma
  TGI: 21.5 µM
NCI-H23 lung
  TGI: 52.3 µM
M14 melanoma
  TGI: 24.8 µM
SK-OV-3 ovarian
  TGI: 39.9 µM
HCC-2998 colon
  TGI: 19.3 µM

## O=C(O)Cc1cccc2c(=O)c3cccc([N+](=O)[O-])c3oc12
HS 578T breast
  TGI: > 100 µM
RPMI-8226 leukemia
  TGI: > 100 µM
UACC-62 melanoma
  TGI: > 100 µM
PC-3 prostate
  TGI: > 100 µM
NCI-H23 lung
  TGI: > 100 µM
M14 melanoma
  TGI: > 100 µM
SK-OV-3 ovarian
  TGI: > 100 µM
HCC-2998 colon
  TGI: > 100 µM
MDA-MB-435
  TGI: > 100000 nM

## COc1ccc(OC)c(/C=C/c2nc(SCc3ccccc3)n(-c3ccc(Cl)cc3)n2)c1
HS 578T breast
  GI50: 5.23 µM
  TGI: > 100 µM
RPMI-8226 leukemia
  GI50: 7.39 µM
  TGI: > 100 µM
UACC-62 melanoma
  GI50: 6150 nM
  TGI: > 100 µM
PC-3 prostate
  GI50: 33300 nM
  TGI: > 100 µM
NCI-H23 lung
  GI50: 6.85 µM
  TGI: > 100 µM
NCI/ADR-RES ovarian
  GI50: 2250 nM
  TGI: > 100 µM
M14 melanoma
  GI50: 4220 nM
  TGI: > 100 µM
SK-OV-3 ovarian
  GI50: 8210 nM
  TGI: > 100 µM
HCC-2998 colon
  GI50: 8240 nM
  TGI: > 100 µM

## CN1CCN(Cc2cc(NC(=O)c3cccc(C#Cc4cccc5[nH]nc(N)c45)c3)cc(C(F)(F)F)c2)CC1
RPMI-8226 leukemia
  GI50: 2.12 µM
  TGI: 4.62 µM
UACC-62 melanoma
  GI50: 1690 nM
  TGI: 3.22 µM
PC-3 prostate
  GI50: 1810 nM
  TGI: 3.52 µM
NCI-H23 lung
  GI50: 1.72 µM
  TGI: 3.4 µM
NCI/ADR-RES ovarian
  GI50: 2020 nM
  TGI: 4.2 µM
M14 melanoma
  GI50: 1350 nM
  TGI: 2.9 µM
SK-OV-3 ovarian
  GI50: 1940 nM
  TGI: 3.54 µM
HCC-2998 colon
  GI50: 1990 nM
  TGI: 3.66 µM
MDA-MB-435
  GI50: 1480 nM
  TGI: 2900 nM

## COc1cnc2c(c1)C(=O)c1c-2n(CCCN2CCNCC2)c(=O)c2cc([N+](=O)[O-])ccc12
HS 578T breast
  GI50: 1.82 µM
  TGI: 4.6 µM
RPMI-8226 leukemia
  GI50: 0.301 µM
  TGI: 2.28 µM
UACC-62 melanoma
  GI50: 176 nM
  TGI: 1.57 µM
PC-3 prostate
  GI50: 1170 nM
  TGI: 2.56 µM
NCI/ADR-RES ovarian
  GI50: 1110 nM
  TGI: 2.8 µM
M14 melanoma
  GI50: 279 nM
  TGI: 1.49 µM
SK-OV-3 ovarian
  GI50: 239 nM
  TGI: 0.771 µM
HCC-2998 colon
  GI50: 1110 nM
  TGI: 2.36 µM
MDA-MB-435
  GI50: 1250 nM
  TGI: 2680 nM

## CCc1cccc(C)c1NC(=S)NC(=O)c1ccccc1C(=O)NC(=S)Nc1c(C)cccc1CC
RPMI-8226 leukemia
  TGI: > 100 µM
UACC-62 melanoma
  TGI: > 100 µM
NCI-H23 lung
  TGI: > 100 µM
M14 melanoma
  TGI: > 100 µM
SK-OV-3 ovarian
  TGI: > 100 µM
HCC-2998 colon
  TGI: > 100 µM

## CCN=C(C#N)NCC
RPMI-8226 leukemia
  TGI: > 100 µM
UACC-62 melanoma
  TGI: > 100 µM
NCI-H23 lung
  TGI: > 100 µM
M14 melanoma
  TGI: > 100 µM
SK-OV-3 ovarian
  TGI: > 100 µM
HCC-2998 colon
  TGI: > 100 µM

## COc1cccc2c1C(=O)c1c(O)c3c(c(O)c1C2=O)CC(O)(C(=O)CO)CC3OC1CC(N)C(O)C(C)O1 (stereo unspecified)
HS 578T breast
  GI50: 33.8 µg/mL
  TGI: 75 µg/mL
RPMI-8226 leukemia
  GI50: 7.24 µg/mL and 13.2 µg/mL
  TGI: 75 µg/mL and 112 µg/mL
UACC-62 melanoma
  GI50: 7.54 µg/mL and 18.6 µg/mL
  TGI: 27.8 µg/mL and 62 µg/mL
PC-3 prostate
  GI50: 37.2 µg/mL and 52.2 µg/mL
  TGI: 75 µg/mL and > 150 µg/mL
NCI-H23 lung
  GI50: 11.3 µg/mL and 49.1 µg/mL
  TGI: 75 µg/mL and > 150 µg/mL
M14 melanoma
  GI50: 9.35 µg/mL and 48.5 µg/mL
  TGI: 75 µg/mL and > 150 µg/mL
SK-OV-3 ovarian
  GI50: 22.6 µg/mL and 14.9 µg/mL
  TGI: 75 µg/mL and 143 µg/mL
HCC-2998 colon
  GI50: 37.2 µg/mL and 26 µg/mL
  TGI: 75 µg/mL and 122 µg/mL
MDA-MB-435
  GI50: 8.56 µg/mL and 67 µg/mL
  TGI: 75 µg/mL and > 150 µg/mL

## O=C1C2C3C=CC(C2C(=O)N1CN1CCSCC1)C1C2C(=O)N(CN4CCSCC4)C(=O)C2C31 (stereo unspecified)
RPMI-8226 leukemia
  GI50: 32.2 µM
  TGI: 61.7 µM
UACC-62 melanoma
  TGI: > 100 µM
NCI-H23 lung
  TGI: > 100 µM
M14 melanoma
  TGI: > 100 µM
SK-OV-3 ovarian
  TGI: > 100 µM
HCC-2998 colon
  TGI: > 100 µM

## COc1ccc(CCc2cc(OC)c(O)c(OC)c2)cc1
RPMI-8226 leukemia
  TGI: > 100 µM
UACC-62 melanoma
  TGI: > 100 µM
NCI-H23 lung
  TGI: > 100 µM
M14 melanoma
  TGI: > 100 µM
SK-OV-3 ovarian
  TGI: > 100 µM
HCC-2998 colon
  TGI: > 100 µM

## Cc1cc(Cl)ccc1NC(=O)C(=O)C(C(=O)c1ccccc1)C1OC(=O)c2ccccc21 (stereo unspecified)
RPMI-8226 leukemia
  TGI: > 100 µM
UACC-62 melanoma
  TGI: > 100 µM
NCI-H23 lung
  TGI: > 100 µM
M14 melanoma
  TGI: > 100 µM
SK-OV-3 ovarian
  TGI: > 100 µM
HCC-2998 colon
  TGI: > 100 µM

## c1ccc2c(NCCCCCCNc3cccc4ccccc34)cccc2c1
RPMI-8226 leukemia
  TGI: > 100 µM
UACC-62 melanoma
  TGI: > 100 µM
NCI-H23 lung
  TGI: > 100 µM
M14 melanoma
  TGI: > 100 µM
SK-OV-3 ovarian
  TGI: > 100 µM
HCC-2998 colon
  TGI: > 100 µM

## CC(=O)O[C@H]1CC2C=CC3C(CCC31)O2 (stereo partly specified)
UACC-62 melanoma
  TGI: > 100 µM
NCI-H23 lung
  TGI: > 100 µM
M14 melanoma
  TGI: > 100 µM
SK-OV-3 ovarian
  TGI: > 100 µM
HCC-2998 colon
  TGI: > 100 µM

## COc1ccc(N(C)c2nc(Cl)nc3cnn(C)c23)cc1
HS 578T breast
  GI50: < 0.01 µM
  TGI: > 100 µM
RPMI-8226 leukemia
  GI50: < 0.0177 µM
  TGI: > 100 µM
UACC-62 melanoma
  GI50: < 10 nM
  TGI: > 100 µM
PC-3 prostate
  GI50: < 10 nM
  TGI: > 100 µM
NCI-H23 lung
  GI50: < 0.0251 µM
  TGI: > 100 µM
NCI/ADR-RES ovarian
  GI50: < 10 nM
  TGI: > 100 µM
M14 melanoma
  GI50: < 10 nM
  TGI: > 100 µM
SK-OV-3 ovarian
  GI50: < 10 nM
  TGI: > 100 µM
HCC-2998 colon
  GI50: 28.5 nM
  TGI: > 59.7 µM

## CCOC(=O)c1cccnc1C(OC(C)=O)OC(C)=O
UACC-62 melanoma
  TGI: > 100 µM
NCI-H23 lung
  TGI: > 100 µM
M14 melanoma
  TGI: > 100 µM
SK-OV-3 ovarian
  TGI: > 100 µM
HCC-2998 colon
  TGI: > 100 µM

## COc1ccc2c(c1)C(=O)c1c-2c(Nc2cccc(C(C)=O)c2)nc2ccccc12
HS 578T breast
  GI50: 3.19 µM
  TGI: 15.5 µM
RPMI-8226 leukemia
  GI50: 17.5 µM
  TGI: 70.7 µM
UACC-62 melanoma
  GI50: 11600 nM
  TGI: 27.7 µM
PC-3 prostate
  GI50: 14300 nM
  TGI: 32.5 µM
NCI-H23 lung
  GI50: 4.86 µM
  TGI: 19.3 µM
NCI/ADR-RES ovarian
  GI50: 8660 nM
  TGI: 28.3 µM
M14 melanoma
  GI50: 15500 nM
  TGI: 46.5 µM
HCC-2998 colon
  GI50: 16100 nM
  TGI: 91.4 µM
MDA-MB-435
  GI50: 30800 nM
  TGI: > 100000 nM

## CCOC1CC2OC(=O)C1C=C2C(=O)OC (stereo unspecified)
RPMI-8226 leukemia
  TGI: 53.9 µM
UACC-62 melanoma
  TGI: > 100 µM
NCI-H23 lung
  TGI: 44.2 µM
M14 melanoma
  TGI: 38.6 µM
SK-OV-3 ovarian
  TGI: > 100 µM
HCC-2998 colon
  TGI: > 100 µM

## [O-]c1c2c(nn1-c1ccc(Cl)cc1)c1ccccc1c[n+]2Cc1ccccc1
RPMI-8226 leukemia
  TGI: > 100 µM
UACC-62 melanoma
  TGI: > 100 µM
NCI-H23 lung
  TGI: > 100 µM
M14 melanoma
  TGI: > 100 µM
SK-OV-3 ovarian
  TGI: > 100 µM
HCC-2998 colon
  TGI: > 100 µM
